# Source: patent US20240109972A1, “ANTIBODY AND TAXANE COMBINATION THERAPY” (Genmab A/S, priority 2020, published 2024)
# System: solid malignant tumors
# Test: GEN1046 Phase I dose escalation (NCT03917381), response by RECIST v1.1
# Format: in vivo, human
# Details: for CR (Complete Response), patients / Confirmed CR (Complete Response), patients / Confirmed Disease Control (PR + PR + SD) Rate, % / Confirmed Disease Control (PR + PR + SD) Rate, patients / Confirmed NE (Not Evaluable), % of patients / Confirmed NE (Not Evaluable), patients / Confirmed Objective Response (CR + PR) Rate, patients / Confirmed PD (Progressive Disease), % of patients / Confirmed PD (Progressive Disease), patients / Confirmed PR (Partial Response), patients / Confirmed SD (Stable Disease), % of patients / Confirmed SD (Stable Disease), patients / Disease Control (PR + PR + SD) Rate, % / Disease Control (PR + PR + SD) Rate, patients / NE (Not Evaluable), % of patients / NE (Not Evaluable), patients / Objective Response (CR + PR) Rate, patients / PD (Progressive Disease), % of patients / PD (Progressive Disease), patients / PR (Partial Response), patients / Confirmed Objective Response (CR + PR) Rate, % / Confirmed PR (Partial Response), % of patients / Objective Response (CR + PR) Rate, % / PR (Partial Response), % of patients: Oct. 12, 2020; for BOR Complete Response, (percent) / BOR Complete Response, patients / BOR Partial Response, (percent) / BOR Partial Response, patients / BOR Progressive Disease, (percent) / BOR Progressive Disease, patients / BOR Stable Disease, (percent) / BOR Stable Disease, patients: 3 Feb. 2020
# Text: The resistance to, failure to respond to and/or relapse from treatment with a binding agent of the invention and/or other therapeutic agent(s) may be determined according to the Response Evaluation Criteria In Solid Tumors; version 1.1 (RECIST Criteria v1.1).
# The “best overall response” is the best response recorded from the start of the treatment until disease progression/recurrence (the smallest measurements recorded since the treatment started will be used as the reference for PD). Subjects with CR or PR are considered to be objective response. Subjects with CR, PR or SD are considered to be in disease control. Subjects with NE are counted as non-responders. […]
# Clinical trial on GCT1046-01 (ClinicalTrials.gov Identifier: NCT03917381) was designed as a two-part trial, including an ongoing dose escalation part and a planned expansion part.
# The trial consists of 2 parts; a First-in-Human (FIH) dose escalation (Phase I) and an expansion (Phase 11a).
# For dose escalation, subject was required to be a man or […] and was required to have measurable disease according to RECIST 1.1.
substance,measurement,setting,value
"GEN1046: PD-L1×4-1BB bispecific antibody: PD-L1-547-FEAL combined with CD137-009-HC7LC2-FEAR (SEQ ID NOs: 1, 5, 21, 19; 8, 12, 22, 20)","CR (Complete Response), patients",25 mg (N 4),0
same,"Confirmed CR (Complete Response), patients",25 mg (N 4),0
same,"Confirmed Disease Control (PR + PR + SD) Rate, %",25 mg (N 4),25.0%
same,"Confirmed Disease Control (PR + PR + SD) Rate, patients",25 mg (N 4),1
same,"Confirmed NE (Not Evaluable), % of patients",25 mg (N 4),25.0%
same,"Confirmed NE (Not Evaluable), patients",25 mg (N 4),1
same,"Confirmed Objective Response (CR + PR) Rate, patients",25 mg (N 4),0
same,"Confirmed PD (Progressive Disease), % of patients",25 mg (N 4),50.0%
same,"Confirmed PD (Progressive Disease), patients",25 mg (N 4),2
same,"Confirmed PR (Partial Response), patients",25 mg (N 4),0
same,"Confirmed SD (Stable Disease), % of patients",25 mg (N 4),25.0%
same,"Confirmed SD (Stable Disease), patients",25 mg (N 4),1
same,"Disease Control (PR + PR + SD) Rate, %",25 mg (N 4),25.0%
same,"Disease Control (PR + PR + SD) Rate, patients",25 mg (N 4),1
same,"NE (Not Evaluable), % of patients",25 mg (N 4),25.0%
same,"NE (Not Evaluable), patients",25 mg (N 4),1
same,"Objective Response (CR + PR) Rate, patients",25 mg (N 4),0
same,"PD (Progressive Disease), % of patients",25 mg (N 4),50.0%
same,"PD (Progressive Disease), patients",25 mg (N 4),2
same,"PR (Partial Response), patients",25 mg (N 4),0
same,"BOR Complete Response, (percent)",25 mg (n = 2),(0)
same,"BOR Complete Response, patients",25 mg (n = 2),0
same,"BOR Partial Response, (percent)",25 mg (n = 2),(0)
same,"BOR Partial Response, patients",25 mg (n = 2),0
same,"BOR Progressive Disease, (percent)",25 mg (n = 2),(100)
same,"BOR Progressive Disease, patients",25 mg (n = 2),2
same,"BOR Stable Disease, (percent)",25 mg (n = 2),(0)
same,"BOR Stable Disease, patients",25 mg (n = 2),0
same,"CR (Complete Response), patients",50 mg (N 5),0
same,"Confirmed CR (Complete Response), patients",50 mg (N 5),0
same,"Confirmed Disease Control (PR + PR + SD) Rate, %",50 mg (N 5),60.0%
same,"Confirmed Disease Control (PR + PR + SD) Rate, patients",50 mg (N 5),3
same,"Confirmed NE (Not Evaluable), patients",50 mg (N 5),0
same,"Confirmed Objective Response (CR + PR) Rate, patients",50 mg (N 5),0
same,"Confirmed PD (Progressive Disease), % of patients",50 mg (N 5),40.0%
same,"Confirmed PD (Progressive Disease), patients",50 mg (N 5),2
same,"Confirmed PR (Partial Response), patients",50 mg (N 5),0
same,"Confirmed SD (Stable Disease), % of patients",50 mg (N 5),60.0%
same,"Confirmed SD (Stable Disease), patients",50 mg (N 5),3
same,"Disease Control (PR + PR + SD) Rate, %",50 mg (N 5),60.0%
same,"Disease Control (PR + PR + SD) Rate, patients",50 mg (N 5),3
same,"NE (Not Evaluable), patients",50 mg (N 5),0
same,"Objective Response (CR + PR) Rate, patients",50 mg (N 5),0
same,"PD (Progressive Disease), % of patients",50 mg (N 5),40.0%
same,"PD (Progressive Disease), patients",50 mg (N 5),2
same,"PR (Partial Response), patients",50 mg (N 5),0
same,"BOR Complete Response, (percent)",50 mg (n = 5),(0)
same,"BOR Complete Response, patients",50 mg (n = 5),0
same,"BOR Partial Response, (percent)",50 mg (n = 5),(0)
same,"BOR Partial Response, patients",50 mg (n = 5),0
same,"BOR Progressive Disease, (percent)",50 mg (n = 5),(40)
same,"BOR Progressive Disease, patients",50 mg (n = 5),2
same,"BOR Stable Disease, (percent)",50 mg (n = 5),(60)
same,"BOR Stable Disease, patients",50 mg (n = 5),3
same,"CR (Complete Response), patients",80 mg (N 9),0
same,"Confirmed CR (Complete Response), patients",80 mg (N 9),0
same,"Confirmed Disease Control (PR + PR + SD) Rate, %",80 mg (N 9),88.9%
same,"Confirmed Disease Control (PR + PR + SD) Rate, patients",80 mg (N 9),8
same,"Confirmed NE (Not Evaluable), patients",80 mg (N 9),0
same,"Confirmed Objective Response (CR + PR) Rate, %",80 mg (N 9),11.1%
same,"Confirmed Objective Response (CR + PR) Rate, patients",80 mg (N 9),1
same,"Confirmed PD (Progressive Disease), % of patients",80 mg (N 9),11.1%
same,"Confirmed PD (Progressive Disease), patients",80 mg (N 9),1
same,"Confirmed PR (Partial Response), % of patients",80 mg (N 9),11.1%
same,"Confirmed PR (Partial Response), patients",80 mg (N 9),1
same,"Confirmed SD (Stable Disease), % of patients",80 mg (N 9),77.8%
same,"Confirmed SD (Stable Disease), patients",80 mg (N 9),7
same,"Disease Control (PR + PR + SD) Rate, %",80 mg (N 9),88.9%
same,"Disease Control (PR + PR + SD) Rate, patients",80 mg (N 9),8
same,"NE (Not Evaluable), patients",80 mg (N 9),0
same,"Objective Response (CR + PR) Rate, %",80 mg (N 9),22.2%
same,"Objective Response (CR + PR) Rate, patients",80 mg (N 9),2
same,"PD (Progressive Disease), % of patients",80 mg (N 9),11.1%
same,"PD (Progressive Disease), patients",80 mg (N 9),1
same,"PR (Partial Response), % of patients",80 mg (N 9),22.2%
same,"PR (Partial Response), patients",80 mg (N 9),2
same,"BOR Complete Response, (percent)",80 mg (n = 8),(0)
same,"BOR Complete Response, patients",80 mg (n = 8),0
same,"BOR Progressive Disease, (percent)",80 mg (n = 8),(12.5)
same,"BOR Progressive Disease, patients",80 mg (n = 8),1
same,"BOR Stable Disease, (percent)",80 mg (n = 8),(62.5)
same,"BOR Stable Disease, patients",80 mg (n = 8),5
same,"BOR Partial Response, (percent)","80 mg (n = 8), uPR",(25)
same,"BOR Partial Response, patients","80 mg (n = 8), uPR",2^1
same,"CR (Complete Response), patients",100 mg (N 6),0
same,"Confirmed CR (Complete Response), patients",100 mg (N 6),0
same,"Confirmed Disease Control (PR + PR + SD) Rate, %",100 mg (N 6),66.7%
same,"Confirmed Disease Control (PR + PR + SD) Rate, patients",100 mg (N 6),4
same,"Confirmed NE (Not Evaluable), % of patients",100 mg (N 6),33.3%
same,"Confirmed NE (Not Evaluable), patients",100 mg (N 6),2
same,"Confirmed Objective Response (CR + PR) Rate, %",100 mg (N 6),16.7%
same,"Confirmed Objective Response (CR + PR) Rate, patients",100 mg (N 6),1
same,"Confirmed PD (Progressive Disease), patients",100 mg (N 6),0
same,"Confirmed PR (Partial Response), % of patients",100 mg (N 6),16.7%
same,"Confirmed PR (Partial Response), patients",100 mg (N 6),1
same,"Confirmed SD (Stable Disease), % of patients",100 mg (N 6),50.0%
same,"Confirmed SD (Stable Disease), patients",100 mg (N 6),3
same,"Disease Control (PR + PR + SD) Rate, %",100 mg (N 6),66.7%
same,"Disease Control (PR + PR + SD) Rate, patients",100 mg (N 6),4
same,"NE (Not Evaluable), % of patients",100 mg (N 6),33.3%
same,"NE (Not Evaluable), patients",100 mg (N 6),2
same,"Objective Response (CR + PR) Rate, %",100 mg (N 6),16.7%
same,"Objective Response (CR + PR) Rate, patients",100 mg (N 6),1
same,"PD (Progressive Disease), patients",100 mg (N 6),0
same,"PR (Partial Response), % of patients",100 mg (N 6),16.7%
same,"PR (Partial Response), patients",100 mg (N 6),1
same,"CR (Complete Response), patients",140 mg (N 6),0
same,"Confirmed CR (Complete Response), patients",140 mg (N 6),0
same,"Confirmed Disease Control (PR + PR + SD) Rate, %",140 mg (N 6),50.0%
same,"Confirmed Disease Control (PR + PR + SD) Rate, patients",140 mg (N 6),3
same,"Confirmed NE (Not Evaluable), % of patients",140 mg (N 6),16.7%
same,"Confirmed NE (Not Evaluable), patients",140 mg (N 6),1
same,"Confirmed Objective Response (CR + PR) Rate, patients",140 mg (N 6),0
same,"Confirmed PD (Progressive Disease), % of patients",140 mg (N 6),33.3%
same,"Confirmed PD (Progressive Disease), patients",140 mg (N 6),2
same,"Confirmed PR (Partial Response), patients",140 mg (N 6),0
same,"Confirmed SD (Stable Disease), % of patients",140 mg (N 6),50.0%
same,"Confirmed SD (Stable Disease), patients",140 mg (N 6),3
same,"Disease Control (PR + PR + SD) Rate, %",140 mg (N 6),50.0%
same,"Disease Control (PR + PR + SD) Rate, patients",140 mg (N 6),3
same,"NE (Not Evaluable), % of patients",140 mg (N 6),16.7%
same,"NE (Not Evaluable), patients",140 mg (N 6),1
same,"Objective Response (CR + PR) Rate, patients",140 mg (N 6),0
same,"PD (Progressive Disease), % of patients",140 mg (N 6),33.3%
same,"PD (Progressive Disease), patients",140 mg (N 6),2
same,"PR (Partial Response), patients",140 mg (N 6),0
same,"BOR Complete Response, (percent)",140 mg (n = 1),(0)
same,"BOR Complete Response, patients",140 mg (n = 1),0
same,"BOR Partial Response, (percent)",140 mg (n = 1),(0)
same,"BOR Partial Response, patients",140 mg (n = 1),0
same,"BOR Progressive Disease, (percent)",140 mg (n = 1),(100)
same,"BOR Progressive Disease, patients",140 mg (n = 1),1
